These results are taken from US9643967B2, “Pyrrolo[3,2-c]pyridine derivatives as TLR inhibitors” (TAKEDA PHARMACEUTICAL COMPANY LIMITED, priority 2013, dated 2017).

Like-named read-outs stand apart in the source and are kept apart here.

For the experiment, the target named is T1, hTLR9 (Homo sapiens, UniProt Q9NR96).
T1 construct: expressed in transfected cells; host or cells: HEK-Blue-hTLR9 cells (HEK293)
T1 sequence (Q9NR96 26-1032): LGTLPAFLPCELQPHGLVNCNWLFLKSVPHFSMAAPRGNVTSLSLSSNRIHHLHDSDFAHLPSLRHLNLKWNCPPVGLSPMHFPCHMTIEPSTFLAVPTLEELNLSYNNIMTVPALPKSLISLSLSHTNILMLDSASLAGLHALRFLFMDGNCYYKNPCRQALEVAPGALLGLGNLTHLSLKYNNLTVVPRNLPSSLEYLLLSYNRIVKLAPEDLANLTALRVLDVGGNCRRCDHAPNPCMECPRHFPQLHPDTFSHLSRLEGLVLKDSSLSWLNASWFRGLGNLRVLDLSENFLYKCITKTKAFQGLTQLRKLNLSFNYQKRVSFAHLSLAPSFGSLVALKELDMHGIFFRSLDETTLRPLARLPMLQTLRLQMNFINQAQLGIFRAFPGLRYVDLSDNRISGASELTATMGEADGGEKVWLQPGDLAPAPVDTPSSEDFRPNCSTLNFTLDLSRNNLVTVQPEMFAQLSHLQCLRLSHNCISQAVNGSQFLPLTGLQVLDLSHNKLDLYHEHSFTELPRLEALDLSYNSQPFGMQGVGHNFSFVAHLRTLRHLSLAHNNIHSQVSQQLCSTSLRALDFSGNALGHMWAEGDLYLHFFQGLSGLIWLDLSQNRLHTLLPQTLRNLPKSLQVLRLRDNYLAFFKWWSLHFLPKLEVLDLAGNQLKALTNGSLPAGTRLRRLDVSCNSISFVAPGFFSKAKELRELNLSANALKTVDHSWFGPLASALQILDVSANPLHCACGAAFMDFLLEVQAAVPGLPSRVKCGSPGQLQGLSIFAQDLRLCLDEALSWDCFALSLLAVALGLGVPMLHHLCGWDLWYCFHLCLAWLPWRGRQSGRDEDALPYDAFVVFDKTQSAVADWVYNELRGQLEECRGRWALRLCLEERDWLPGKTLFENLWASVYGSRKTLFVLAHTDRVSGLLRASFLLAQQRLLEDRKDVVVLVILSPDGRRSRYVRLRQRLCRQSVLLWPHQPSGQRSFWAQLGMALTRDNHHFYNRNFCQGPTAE
The experiment can be described thus: hTLR9 antagonism (SEAP inhibition assay) in HEK-Blue-hTLR9 (HEK293) cells, ODN-2006 stimulated. Format: cell-based. Here is the method:
hTLR9 Antagonism (SEAP Inhibition Assay) in HEK293 Cell Lines
The SEAP reporter gene in HEK-Blue™-hTLR9 cells is placed under the control of the IFN-b minimal promoter fused to five NF-kB and AP-1 binding sites. The stimulation with a TLR9 ligand (ODN-2006) activates NF-kB and AP-1 which induces the production of SEAP. Levels of SEAP are determined with QUANTI-Blue™ detection medium that turns purple/blue in the presence of alkaline phosphatase. Decrease in the levels of SEAP production as indicated by reduction in absorbance at 650 nm is directly co-related with the TLR9 inhibitory activity of the antagonist (NCE).
HEK-Blue™-hTLR9 cells were maintained in DMEM with 10% FBS, 1% Penicillin/Streptomycin/Amphotericin (complete growth medium) and 0.2% Normocin. For the assay, cells were dissociated by washing in 1×PBS and re-suspended in complete DMEM. Cells were seeded at a density of 20000 cells per well; (40 μl per well) in a 384 well assay plate.
5 μl of 10× antagonist (NCE) was added to the cells in triplicates for each concentration. The plate was incubated for half an hour at 37° C. with 5% CO2. 5 μl of agonist (ODN-2006) was added and the plate was incubated overnight for 18 hours at 37° C. with 5% CO2. 5 μl of supernatant was transferred to a 384 well reading plate and to this 45 μl of Quanti-Blue™ detection reagent was added. The plate was then incubated for an hour at 37° C. SEAP activity in the supernatant was indicated by change in the pink color of Quanti-Blue™ detection reagent to purple/blue and the absorbance was read at 650 nm in the end point mode.

The mark [1] stands for this setting: HEK-Blue hTLR9, 1 μM, SEAP, HEK-Blue-hTLR9 cells, read-out: hTLR9 inhibitory activity (% at 1 μM).

Regarding `Cc1nc(-c2ccc(N3CCN(C(C)C)CC3)cc2)c2cc(CCN3CCCC3)[nH]c2c1C` [Example B10, 4-[4-(4-isopropylpiperazin-1-yl)phenyl]-6,7-dimethyl-2-(2-pyrrolidin-1-ylethyl)-1H-pyrrolo[3,2-c]pyridine], the inhibition at 1 µM under setting [1] is 93.1%.

In the case of `Cc1cc2[nH]c(Cn3cccn3)cc2c(-c2ccc(N3CCN(C(C)C)CC3)cc2)n1` [Example A28, 4-[4-(4-isopropylpiperazin-1-yl)phenyl]-6-methyl-2-(pyrazol-1-ylmethyl)-1H-pyrrolo[3,2-c]pyridine], under setting [1], the inhibition at 1 µM came out at 91%.

Consider `Cc1cc2c(cc(CCCN3CCOCC3)n2C)c(-c2ccc(N3CCN(C(C)C)CC3)cc2)n1` [Example C6, 4-[3-[4-[4-(4-isopropylpiperazin-1-yl)phenyl]-1,6-dimethyl-pyrrolo[3,2-c]pyridin-2-yl]propyl]morpholine], for which, under setting [1], the inhibition at 1 µM is 99.1%.

As for `CC(C)N1CCN(c2ccc(-c3nccc4[nH]c(CN5CC(O)C5)cc34)cc2)CC1` [Example A72, 1-[[4-[4-(4-isopropylpiperazin-1-yl)phenyl]-1H-pyrrolo[3,2-c]pyridin-2-yl]methyl]azetidin-3-ol], the inhibition at 1 µM under setting [1] amounted to 100%.

In the case of `CC(C)N1CCC(c2ccc(-c3nccc4[nH]c(CN5CCOCC5)cc34)cn2)CC1` [Example A64, 4-[[4-[6-(1-isopropyl-4-piperidyl)-3-pyridyl]-1H-pyrrolo[3,2-c]pyridin-2-yl]methyl]morpholine], the inhibition at 1 µM under setting [1] amounted to 73%.

Turning to `CC(C)N1CCN(c2ccc(-c3nccc4[nH]c(CN5CCCCC5)cc34)cc2)CC1` [Example A17, 4-[4-(4-isopropylpiperazin-1-yl)phenyl]-2-(1-piperidylmethyl)-1H-pyrrolo[3,2-c]pyridine], the inhibition at 1 µM under setting [1] worked out at 100%.

Turning to `CC(C)N1CCN(c2ccc(-c3nc(C4CC4)cc4[nH]c(CN5CCOCC5)cc34)cc2)CC1` [Example A33, 4-[[6-cyclopropyl-4-[4-(4-isopropylpiperazin-1-yl)phenyl]-1H-pyrrolo[3,2-c]pyridin-2-yl]methyl] morpholine], the inhibition at 1 µM under setting [1] is 90.4%.

On to `CC(C)N1CCN(c2ccc(-c3nccc4c3cc(CN3CCOCC3)n4C)cc2)CC1` [Example A8, 4-[[4-[4-(4-isopropylpiperazin-1-yl)phenyl]-1-methyl-pyrrolo[3,2-c]pyridin-2-yl]methyl] morpholine], for which the inhibition at 1 µM under setting [1] worked out at 100%.

In the case of `Cc1cc2c(cc(CCN3CCOCC3)n2C)c(-c2ccc(C3CCN(C(C)C)CC3)cc2)n1` [Example B31, 4-[2-[4-[4-(1-isopropyl-4-piperidyl)phenyl]-1,6-dimethyl-pyrrolo[3,2-c]pyridin-2-yl]ethyl]morpholine], under setting [1], the inhibition at 1 µM is 99.4%.

Take `Cc1nc(-c2ccc(N3CCN(C)CC3)cc2)c2cc(CN3CCOCC3)[nH]c2c1C` [Example A37, 4-[[6,7-dimethyl-4-[4-(4-methylpiperazin-1-yl)phenyl]-1H-pyrrolo[3,2-c]pyridin-2-yl]methyl] morpholine]: the inhibition at 1 µM under setting [1] turned out to be 100%.

On to `CC(C)N1CCN(c2ccc(-c3nccc4[nH]c(CN5CCC(O)CC5)cc34)cc2)CC1` [Example A12, 1-[[4-[4-(4-isopropylpiperazin-1-yl)phenyl]-1H-pyrrolo[3,2-c]pyridin-2-yl]methyl] piperidin-4-ol], for which the inhibition at 1 µM under setting [1] came out at 100%.

Consider `CC(C)N1CCN(c2ccc(-c3nccc4[nH]c(C(=O)N5CCOCC5)cc34)cc2)CC1` [Example A82, [4-[4-(4-isopropylpiperazin-1-yl)phenyl]-1H-pyrrolo[3,2-c]pyridin-2-yl]-morpholino-methanone], for which the inhibition at 1 µM (HEK-Blue hTLR9, read-out: hTLR9 inhibitory activity (% at 1 μM)) is 98%.

Take `CC(C)N1CCN(c2ccc(-c3nccc4[nH]c(CN5CCOCC5)cc34)cc2)CC1` [Example A1, 4-[[4-[4-(4-isopropylpiperazin-1-yl)phenyl]-1H-pyrrolo[3,2-c]pyridin-2-yl]methyl]morpholine]: the inhibition at 1 µM under setting [1] amounted to 100%.

As to `CC(C)N1CCN(c2ccc(-c3nccc4[nH]c(CCCN5CCOCC5)cc34)cc2)CC1` [Example C1, 4-[3-[4-[4-(4-isopropylpiperazin-1-yl)phenyl]-1H-pyrrolo[3,2-c]pyridin-2-yl]propyl]morpholine], the inhibition at 1 µM under setting [1] was 99.2%.

Consider `CN1CCN(c2ccc(-c3nccc4[nH]c(CCN5CCOCC5)cc34)cc2)CC1` [Example B2, 4-[2-[4-[4-(4-methylpiperazin-1-yl)phenyl]-1H-pyrrolo[3,2-c]pyridin-2-yl]ethyl]morpholine], for which the inhibition at 1 µM under setting [1] was 100%.

As to `COc1cc(N2CCN(C(C)C)CC2)ccc1-c1nc(C)cc2c1cc(CCN1CCOCC1)n2C` [Example B20, 4-[2-[4-[4-(4-isopropylpiperazin-1-yl)-2-methoxy-phenyl]-1,6-dimethyl-pyrrolo[3,2-c]pyridin-2-yl]ethyl]morpholine], the inhibition at 1 µM under setting [1] was determined as 100%.

Regarding `CC(C)N1CCN(c2ccc(-c3nccc4[nH]c(CCN5CCOCC5)cc34)cc2)CC1` [Example B1, 4-[2-[4-[4-(4-isopropylpiperazin-1-yl)phenyl]-1H-pyrrolo[3,2-c]pyridin-2-yl]ethyl]morpholine], the inhibition at 1 µM under setting [1] came out at 100%.

As to `Cc1cc2[nH]c(CN3CCOCC3)cc2c(-c2ccc(N3CCN(C(C)C)CC3)cc2)n1` [Example A4, 4-[[4-[4-[4-isopropylpiperazin-1-yl)phenyl]-6-methyl-1H-pyrrolo[3,2-c]pyridin-2-yl]methyl] morpholine], the inhibition at 1 µM under setting [1] is 100%.

Turning to `Cc1cc2c(cc(CCN3CCOCC3)n2C)c(-c2ccc(N3CCN(C(C)C)CC3)c(C)c2)n1` [Example B16, 4-[2-[4-[4-(4-isopropylpiperazin-1-yl)-3-methyl-phenyl]-1,6-dimethyl-pyrrolo[3,2-c]pyridin-2-yl]ethyl]morpholine], under setting [1], the inhibition at 1 µM was 91%.

For the compound `Cc1cc2c(cc(CCN3CCOCC3)n2C)c(-c2ccc(N3CCN(C(C)C)CC3)c(C(F)(F)F)c2)n1` [Example B18, 4-[2-[4-[4-(4-isopropylpiperazin-1-yl)-3-(trifluoromethyl)phenyl]-1,6-dimethyl-pyrrolo[3,2-c]pyridin-2-yl]ethyl]morpholine], under setting [1], the inhibition at 1 µM came out at 99.3%.

`CN1CCN(c2ccc(-c3nccc4[nH]c(CN5CCC(F)CC5)cc34)cc2)CC1` [Example A25, 2-[(4-fluoro-1-piperidyl)methyl]-4-[4-(4-methylpiperazin-1-yl)phenyl] - 1H-pyrrolo[3,2-c]pyridine]: the inhibition at 1 µM under setting [1] stood at 95.2%.

Regarding `c1cc2[nH]c(CN3CCOCC3)cc2c(-c2ccc(OC3CCNCC3)cc2)n1` [Example A49, 4-[[4-[4-(4-piperidyloxy)phenyl]-1H-pyrrolo[3,2-c]pyridin-2-yl]methyl]morpholine], under setting [1], the inhibition at 1 µM stood at 91%.

Turning to `Cc1cc2c(cc(CCN3CCOCC3)n2C)c(-c2ccc(N3CCN(C(C)C)CC3)c(F)c2)n1` [Example B14, 4-[2-[4-[3-fluoro-4-(4-isopropylpiperazin-1-yl)phenyl]-1,6-dimethyl-pyrrolo[3,2-c]pyridin-2-yl]ethyl]morpholine], under setting [1], the inhibition at 1 µM was 88.7%.

For the compound `Cc1cc2[nH]c(CCN3CCCCC3)cc2c(-c2ccc(N3CCN(C(C)C)CC3)cc2)n1` [Example B5, 4-[4-(4-isopropylpiperazin-1-yl)phenyl]-6-methyl-2-[2-(1-piperidyl)ethyl]-1H-pyrrolo[3,2-c]pyridine], the inhibition at 1 µM under setting [1] was 78%.
